Measured values reported in ChEMBL document CHEMBL1150976, “The selectivity of protein kinase inhibitors: a further update” (Biochem J, 2007).
Calls of active or inactive are those of the source. No cut-off for these calls is given here.

Experiments:
[1] = target: T1, Serine/threonine-protein kinase pim-3 (Homo sapiens, UniProt Q86V86); test: Inhibition of PIM3 in the presence of 5uM ATP
[2] = target: Serine/threonine-protein kinase pim-1 (Homo sapiens, UniProt P11309); test: Inhibition of PIM1 in the presence of 20uM ATP
[3] = target: Mitogen-activated protein kinase 8 (Homo sapiens, UniProt P45983); test: Inhibition of JNK1 in the presence of 20uM ATP
[4] = target: Glycogen synthase kinase-3 beta (Homo sapiens, UniProt P49841); test: Inhibition of GSK3-beta in the presence of 20uM ATP
[5] = target: Dual specificity tyrosine-phosphorylation-regulated kinase 2 (Homo sapiens, UniProt Q92630); test: Inhibition of DYRK2 in the presence of 50uM ATP
[6] = target: Mitogen-activated protein kinase 9 (Homo sapiens, UniProt P45984); test: Inhibition of JNK2 in the presence of 20uM ATP
[7] = target: T2, Receptor-interacting serine/threonine-protein kinase 2 (Homo sapiens, UniProt O43353); test: Percentage RIP2 activity remaining in the presence of 1uM inhibitor; conditions: filed as antagonist
[8] = target: T2, Receptor-interacting serine/threonine-protein kinase 2; test: Percentage RIP2 activity remaining in the presence of 10uM inhibitor; conditions: filed as antagonist
[9] = target: T3, Cyclin-G-associated kinase (Homo sapiens) (UniProt O14976); test: Percentage GAK activity remaining in the presence of 1uM inhibitor; conditions: filed as antagonist
T3 sequence (whole entry): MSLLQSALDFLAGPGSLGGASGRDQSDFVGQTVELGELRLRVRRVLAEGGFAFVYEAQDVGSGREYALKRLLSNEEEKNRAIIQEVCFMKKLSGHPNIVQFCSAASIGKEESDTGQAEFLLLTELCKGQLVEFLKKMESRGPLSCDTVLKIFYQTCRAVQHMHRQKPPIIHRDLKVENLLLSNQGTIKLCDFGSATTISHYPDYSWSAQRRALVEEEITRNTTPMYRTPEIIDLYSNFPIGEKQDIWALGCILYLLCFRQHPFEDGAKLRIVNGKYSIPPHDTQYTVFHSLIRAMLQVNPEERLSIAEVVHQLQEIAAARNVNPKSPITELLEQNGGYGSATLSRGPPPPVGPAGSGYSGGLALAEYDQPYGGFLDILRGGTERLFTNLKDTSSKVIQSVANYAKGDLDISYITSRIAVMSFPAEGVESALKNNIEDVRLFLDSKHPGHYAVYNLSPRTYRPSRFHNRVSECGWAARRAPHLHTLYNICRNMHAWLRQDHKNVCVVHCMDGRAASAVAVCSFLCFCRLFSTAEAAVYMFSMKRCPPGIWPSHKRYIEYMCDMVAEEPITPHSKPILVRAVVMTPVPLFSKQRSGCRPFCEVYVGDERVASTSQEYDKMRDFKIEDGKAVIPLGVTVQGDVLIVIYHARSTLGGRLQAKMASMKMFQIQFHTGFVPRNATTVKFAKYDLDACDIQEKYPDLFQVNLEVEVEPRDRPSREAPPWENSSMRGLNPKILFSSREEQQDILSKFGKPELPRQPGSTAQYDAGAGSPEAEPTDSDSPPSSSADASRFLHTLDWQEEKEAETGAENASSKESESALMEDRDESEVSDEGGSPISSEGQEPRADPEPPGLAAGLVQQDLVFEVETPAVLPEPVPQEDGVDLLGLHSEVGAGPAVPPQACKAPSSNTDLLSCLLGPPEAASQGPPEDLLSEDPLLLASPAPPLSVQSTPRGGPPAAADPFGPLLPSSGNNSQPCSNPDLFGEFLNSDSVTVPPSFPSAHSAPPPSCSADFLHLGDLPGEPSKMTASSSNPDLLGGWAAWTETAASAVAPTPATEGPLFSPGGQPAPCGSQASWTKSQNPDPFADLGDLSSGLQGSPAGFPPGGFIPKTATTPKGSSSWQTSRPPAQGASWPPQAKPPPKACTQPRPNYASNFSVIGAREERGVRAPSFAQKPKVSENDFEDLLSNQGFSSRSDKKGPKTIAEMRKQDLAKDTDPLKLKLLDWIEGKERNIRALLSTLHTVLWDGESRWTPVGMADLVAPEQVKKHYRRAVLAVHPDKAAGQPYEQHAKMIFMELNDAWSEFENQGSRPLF

[10] = target: T2, Receptor-interacting serine/threonine-protein kinase 2; test: Inhibition of RIP2 in the presence of 100uM ATP
[11] = target: Proto-oncogene tyrosine-protein kinase LCK (Mus musculus, UniProt P06240); test: Inhibition of Lck in the presence of 50uM ATP
[12] = target: cAMP-dependent protein kinase catalytic subunit alpha (Homo sapiens, UniProt P17612); test: Inhibition of PKA in the presence of 20uM ATP
[13] = target: Mitogen-activated protein kinase 8 (Homo sapiens, UniProt P45983, M108G); test: Inhibition of JNK-M108G in the presence of 20uM ATP
[14] = target: Mitogen-activated protein kinase 8 (Homo sapiens, UniProt P45983, M108A); test: Inhibition of JNK-M108A in the presence of 20uM ATP
[15] = target: T3, Cyclin-G-associated kinase (Homo sapiens); test: Percentage GAK activity remaining in the presence of 10uM inhibitor; conditions: filed as antagonist
[16] = target: Tyrosine-protein kinase CSK (Homo sapiens, UniProt P41240); test: Inhibition of CSK in the presence of 20uM ATP
[17] = target: Serine/threonine-protein kinase D1 (Homo sapiens, UniProt Q15139); test: Inhibition of PKD1 in the presence of 50uM ATP
[18] = Inhibition of AMPK in the presence of 50uM ATP; design: species or system Rattus norvegicus
[19] = target: T1, Serine/threonine-protein kinase pim-3; test: Inhibition of PIM3 in the presence of 100uM ATP
Casein kinase II = Casein kinase II (Homo sapiens, UniProt P19784+P67870+P68400); test: Inhibition of CK2 in the presence of 5uM ATP; assay type: protein-complex assay
[20] = target: Serine/threonine-protein kinase pim-2 (Homo sapiens, UniProt Q9P1W9); test: Inhibition of PIM2 in the presence of 5uM ATP
[21] = target: T1, Serine/threonine-protein kinase pim-3; test: Inhibition of PIM3 in the presence of 20uM ATP
[22] = target: Serine/threonine-protein kinase PLK1 (Homo sapiens, UniProt P53350); test: Inhibition of PLK1 in the presence of 5uM ATP
[23] = target: Mitogen-activated protein kinase 14 (Homo sapiens, UniProt Q16539)
Aurora kinase B = Aurora kinase B (Homo sapiens, UniProt Q96GD4); test: Inhibition of Aurora B in the presence of 20uM ATP
[24] = target: Serine/threonine-protein kinase 3 (Homo sapiens, UniProt Q13188); test: Inhibition of MST2 in the presence of 50uM ATP
Aurora kinase C = Aurora kinase C (Homo sapiens, UniProt Q9UQB9); test: Inhibition of Aurora C in the presence of 5uM ATP
[25] = target: Proto-oncogene tyrosine-protein kinase Src (Gallus gallus, UniProt P00523); test: Inhibition of Src in the presence of 50uM ATP
[26] = target: Serine/threonine-protein kinase BRSK2 (Homo sapiens, UniProt Q8IWQ3); test: Inhibition of BRSK2 in the presence of 50uM ATP
[27] = target: Myosin light chain kinase, smooth muscle (Homo sapiens, UniProt Q15746); test: Inhibition of SmMLCK in the presence of 50uM ATP
HEK293 [28] = test: Inhibition of CHK2-T68 phosphorylation in MMS treated HEK293 cells at 0.5uM; assay type: functional, cell-based; conditions: Homo sapiens
HEK293 [29] = test: Inhibition of CHK1-S345 phosphorylation in MMS treated HEK293 cells at 0.5uM; assay type: functional, cell-based; conditions: Homo sapiens
HEK293 [30] = test: Inhibition of PKB-S473 phosphorylation in IGF-1 treated HEK293 cells at 0.5uM; assay type: functional, cell-based; conditions: Homo sapiens, filed as antagonist
[31] = target: Casein kinase I isoform delta (Homo sapiens, UniProt P48730)
[32] = target: Dual specificity tyrosine-phosphorylation-regulated kinase 3 (Homo sapiens, UniProt O43781); test: Inhibition of DYRK3 in the presence of 5uM ATP
[33] = target: Serine/threonine-protein kinase Sgk1 (Homo sapiens, UniProt O00141); test: Inhibition of SGK1 in the presence of 20uM ATP
Sequence of Serine/threonine-protein kinase Sgk1 (O00141 whole entry): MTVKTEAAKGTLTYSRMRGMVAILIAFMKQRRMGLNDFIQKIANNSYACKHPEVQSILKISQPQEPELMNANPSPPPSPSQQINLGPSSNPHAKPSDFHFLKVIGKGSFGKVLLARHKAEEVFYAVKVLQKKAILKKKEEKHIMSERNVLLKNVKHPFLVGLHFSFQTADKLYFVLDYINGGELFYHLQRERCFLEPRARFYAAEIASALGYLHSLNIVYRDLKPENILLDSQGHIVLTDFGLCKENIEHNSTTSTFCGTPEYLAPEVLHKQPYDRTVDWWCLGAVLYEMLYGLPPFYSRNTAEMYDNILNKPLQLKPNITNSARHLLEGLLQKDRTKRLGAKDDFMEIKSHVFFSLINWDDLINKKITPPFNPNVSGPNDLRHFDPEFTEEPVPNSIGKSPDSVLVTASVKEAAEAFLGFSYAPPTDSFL

Sequence of Proto-oncogene tyrosine-protein kinase LCK (P06240 whole entry): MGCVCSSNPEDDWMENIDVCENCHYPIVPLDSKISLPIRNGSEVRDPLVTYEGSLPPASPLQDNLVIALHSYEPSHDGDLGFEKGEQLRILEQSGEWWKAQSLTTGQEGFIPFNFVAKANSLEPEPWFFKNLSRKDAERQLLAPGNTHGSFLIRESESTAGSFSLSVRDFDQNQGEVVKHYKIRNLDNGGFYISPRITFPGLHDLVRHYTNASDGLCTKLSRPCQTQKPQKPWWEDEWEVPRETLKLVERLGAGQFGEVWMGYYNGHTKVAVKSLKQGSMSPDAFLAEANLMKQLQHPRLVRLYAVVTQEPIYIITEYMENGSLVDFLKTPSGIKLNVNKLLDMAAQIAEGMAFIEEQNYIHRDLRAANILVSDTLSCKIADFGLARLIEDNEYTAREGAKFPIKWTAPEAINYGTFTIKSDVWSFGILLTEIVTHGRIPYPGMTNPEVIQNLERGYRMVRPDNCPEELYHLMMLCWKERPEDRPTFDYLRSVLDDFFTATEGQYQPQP
T2 sequence (O43353 whole entry): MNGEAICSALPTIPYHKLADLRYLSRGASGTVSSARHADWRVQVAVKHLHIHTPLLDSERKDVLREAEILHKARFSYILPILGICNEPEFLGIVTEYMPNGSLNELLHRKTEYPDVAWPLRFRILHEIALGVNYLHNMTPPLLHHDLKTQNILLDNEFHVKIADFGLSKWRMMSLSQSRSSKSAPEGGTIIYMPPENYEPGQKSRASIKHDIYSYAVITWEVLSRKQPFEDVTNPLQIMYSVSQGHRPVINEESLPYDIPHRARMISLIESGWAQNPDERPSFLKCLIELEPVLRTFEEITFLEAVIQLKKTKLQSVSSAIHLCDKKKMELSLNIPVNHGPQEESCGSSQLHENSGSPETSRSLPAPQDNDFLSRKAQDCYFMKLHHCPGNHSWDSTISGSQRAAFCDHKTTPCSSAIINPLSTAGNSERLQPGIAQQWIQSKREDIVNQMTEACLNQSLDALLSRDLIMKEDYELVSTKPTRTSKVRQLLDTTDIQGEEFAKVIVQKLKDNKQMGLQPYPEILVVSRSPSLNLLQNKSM
Sequence of Serine/threonine-protein kinase pim-1 (P11309 whole entry): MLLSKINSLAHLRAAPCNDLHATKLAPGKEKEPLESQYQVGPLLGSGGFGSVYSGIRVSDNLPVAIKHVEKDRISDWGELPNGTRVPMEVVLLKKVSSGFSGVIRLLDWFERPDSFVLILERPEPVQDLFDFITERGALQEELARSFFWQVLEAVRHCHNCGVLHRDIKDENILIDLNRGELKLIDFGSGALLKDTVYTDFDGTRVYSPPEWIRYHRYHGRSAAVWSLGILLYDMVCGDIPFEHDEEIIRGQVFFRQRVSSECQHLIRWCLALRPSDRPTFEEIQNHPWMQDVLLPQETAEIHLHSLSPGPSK
Sequence of Dual specificity tyrosine-phosphorylation-regulated kinase 2 (Q92630 whole entry): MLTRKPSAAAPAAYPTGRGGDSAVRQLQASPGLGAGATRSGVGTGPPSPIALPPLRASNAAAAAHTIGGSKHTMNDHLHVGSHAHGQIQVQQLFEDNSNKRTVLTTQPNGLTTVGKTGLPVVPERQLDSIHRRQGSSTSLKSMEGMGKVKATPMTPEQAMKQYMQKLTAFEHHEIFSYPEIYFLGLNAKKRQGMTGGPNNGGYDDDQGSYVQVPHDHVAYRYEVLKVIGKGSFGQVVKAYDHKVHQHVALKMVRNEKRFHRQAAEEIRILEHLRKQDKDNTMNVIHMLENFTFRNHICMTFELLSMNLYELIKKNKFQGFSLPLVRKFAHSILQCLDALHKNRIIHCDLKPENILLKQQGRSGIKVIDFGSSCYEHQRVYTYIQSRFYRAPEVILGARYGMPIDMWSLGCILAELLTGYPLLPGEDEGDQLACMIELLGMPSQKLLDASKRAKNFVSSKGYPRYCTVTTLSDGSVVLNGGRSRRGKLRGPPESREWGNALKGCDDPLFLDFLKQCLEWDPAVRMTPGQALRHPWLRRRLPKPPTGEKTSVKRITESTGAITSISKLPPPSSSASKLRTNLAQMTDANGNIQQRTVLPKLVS
Sequence of Serine/threonine-protein kinase pim-2 (Q9P1W9 whole entry): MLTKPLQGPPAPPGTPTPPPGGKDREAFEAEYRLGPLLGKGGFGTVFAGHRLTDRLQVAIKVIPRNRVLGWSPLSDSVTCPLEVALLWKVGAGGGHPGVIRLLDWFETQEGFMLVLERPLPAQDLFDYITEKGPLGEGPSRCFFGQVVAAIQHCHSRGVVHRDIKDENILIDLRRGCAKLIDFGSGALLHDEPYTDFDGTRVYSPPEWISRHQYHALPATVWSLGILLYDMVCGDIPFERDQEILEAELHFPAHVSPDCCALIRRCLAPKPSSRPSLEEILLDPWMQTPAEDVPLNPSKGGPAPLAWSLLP
Sequence of Aurora kinase B (Q96GD4 whole entry): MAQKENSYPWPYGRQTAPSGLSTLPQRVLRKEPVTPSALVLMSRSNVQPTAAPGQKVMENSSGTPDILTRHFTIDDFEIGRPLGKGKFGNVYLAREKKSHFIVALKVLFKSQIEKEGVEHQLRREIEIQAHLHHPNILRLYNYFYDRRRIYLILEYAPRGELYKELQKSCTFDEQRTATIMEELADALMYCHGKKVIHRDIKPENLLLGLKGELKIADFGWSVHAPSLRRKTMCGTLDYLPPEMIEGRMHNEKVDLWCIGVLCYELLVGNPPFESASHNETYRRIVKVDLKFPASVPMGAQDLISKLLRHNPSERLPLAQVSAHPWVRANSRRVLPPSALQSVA
Sequence of Serine/threonine-protein kinase D1 (Q15139 whole entry): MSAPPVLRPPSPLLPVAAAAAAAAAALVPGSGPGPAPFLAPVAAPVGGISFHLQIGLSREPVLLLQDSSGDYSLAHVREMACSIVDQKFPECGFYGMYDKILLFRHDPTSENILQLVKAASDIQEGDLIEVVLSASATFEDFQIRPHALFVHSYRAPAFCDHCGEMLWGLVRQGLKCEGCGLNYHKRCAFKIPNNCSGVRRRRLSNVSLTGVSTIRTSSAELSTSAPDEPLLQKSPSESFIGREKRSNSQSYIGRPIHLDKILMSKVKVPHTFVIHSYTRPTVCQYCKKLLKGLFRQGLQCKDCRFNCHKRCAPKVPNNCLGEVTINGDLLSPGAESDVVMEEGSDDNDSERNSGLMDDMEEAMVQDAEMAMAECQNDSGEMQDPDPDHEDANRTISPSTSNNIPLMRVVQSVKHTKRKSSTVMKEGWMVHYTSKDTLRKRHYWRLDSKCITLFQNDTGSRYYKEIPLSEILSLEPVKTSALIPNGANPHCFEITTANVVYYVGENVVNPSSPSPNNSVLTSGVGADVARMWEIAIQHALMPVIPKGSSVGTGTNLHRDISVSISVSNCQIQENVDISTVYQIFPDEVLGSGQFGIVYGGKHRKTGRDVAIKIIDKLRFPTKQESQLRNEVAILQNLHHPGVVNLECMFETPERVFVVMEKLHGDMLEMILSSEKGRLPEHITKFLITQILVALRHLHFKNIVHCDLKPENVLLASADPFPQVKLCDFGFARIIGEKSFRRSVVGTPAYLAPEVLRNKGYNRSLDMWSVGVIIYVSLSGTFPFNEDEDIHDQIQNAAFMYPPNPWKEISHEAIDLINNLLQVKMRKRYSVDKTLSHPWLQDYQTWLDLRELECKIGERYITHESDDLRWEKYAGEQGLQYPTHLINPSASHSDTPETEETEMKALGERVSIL
Sequence of Mitogen-activated protein kinase 8 (Homo sapiens, UniProt P45983, M108G) (P45983 whole entry M108G): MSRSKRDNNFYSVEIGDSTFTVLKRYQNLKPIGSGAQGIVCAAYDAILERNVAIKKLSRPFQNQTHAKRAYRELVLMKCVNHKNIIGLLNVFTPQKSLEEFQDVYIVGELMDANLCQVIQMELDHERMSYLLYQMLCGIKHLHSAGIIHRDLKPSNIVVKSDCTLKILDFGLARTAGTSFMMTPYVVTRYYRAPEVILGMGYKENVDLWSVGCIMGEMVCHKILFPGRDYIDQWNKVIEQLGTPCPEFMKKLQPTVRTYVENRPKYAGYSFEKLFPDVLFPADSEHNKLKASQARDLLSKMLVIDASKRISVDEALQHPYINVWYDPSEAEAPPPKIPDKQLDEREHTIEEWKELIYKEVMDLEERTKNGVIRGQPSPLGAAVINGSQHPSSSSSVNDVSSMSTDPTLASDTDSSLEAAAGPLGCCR
Sequence of Mitogen-activated protein kinase 8 (Homo sapiens, UniProt P45983) (P45983 whole entry): as the sequence (P45983 whole entry M108G) above, with G108M counted along it
Sequence of Mitogen-activated protein kinase 8 (Homo sapiens, UniProt P45983, M108A) (P45983 whole entry M108A): as the sequence (P45983 whole entry M108G) above, with G108A counted along it

SMILES: N#C/C(=C1/Nc2ccccc2S1)c1ccnc(NCCc2cccnc2)n1
- IC50 [1]: 30 nM (antagonist)
- IC50 [2]: 80 nM (antagonist)
- IC50 [3]: 2600 nM (antagonist)
- IC50 [4]: 40 nM (antagonist)
- IC50 [5]: 300 nM (antagonist)
- IC50 [6]: 5000 nM (antagonist)

SMILES: CC(C)(C)n1nc(Cc2cccc3ccccc23)c2c(N)ncnc21
- Activity [7]: 14%
- Activity [8]: 5%
- Activity [9]: 43%
- IC50 [10]: 130 nM (antagonist)
- IC50 [11]: 460 nM (antagonist)
- IC50 [12]: 500 nM (antagonist)
- IC50 [13]: 140 nM (antagonist)
- IC50 [14]: 250 nM (antagonist)
- Activity [15]: 6%
- IC50 [16]: 510 nM (antagonist)
- IC50 [17]: 250 nM (antagonist)

SMILES: O=C(O)c1ccc2c3c1cccc3c(=O)n1c3ccccc3nc21
- IC50 [18]: 160 nM (antagonist)
- IC50 [19]: 83 nM (antagonist)
- IC50 (Casein kinase II): 190 nM (antagonist)
- IC50 [20]: 110 nM (antagonist)
- IC50 [5]: 950 nM (antagonist)

SMILES: O=c1cc(N2CCOCC2)oc2c(-c3ccccc3)cccc12 [LY-294002]
- IC50 [21]: 1400 nM (antagonist)
- IC50 [22]: 2000 nM (antagonist)

SMILES: NC(=O)c1ccc(-c2nc(-c3ccc4c(c3)OCCO4)c(-c3ccccn3)[nH]2)cc1
- IC50 [23]: 5800 nM (antagonist)
- IC50 [17]: 9100 nM (antagonist)

SMILES: O=C1Nc2ccc(I)cc2C1=Cc1cc(Br)c(O)c(Br)c1 [GW305074X]
- IC50 [2]: 170 nM (antagonist)
- Activity [7]: 35%
- IC50 [21]: 100 nM (antagonist)
- Activity [9]: 32%
- IC50 [20]: 70 nM (antagonist)

SMILES: CN(C)S(=O)(=O)c1ccc2c(c1)/C(=C/c1cc3c([nH]1)CCCC3)C(=O)N2
- IC50 [18]: 110 nM (antagonist)
- IC50 (Aurora kinase B): 19 nM (antagonist)
- IC50 [24]: 110 nM (antagonist)
- IC50 [11]: 150 nM (antagonist)
- IC50 (Aurora kinase C): 17 nM (antagonist)
- IC50 [25]: 100 nM (antagonist)
- IC50 [26]: 100 nM (antagonist)

SMILES: COC[C@H]1OC(=O)c2coc3c2[C@@]1(C)C1=C(C3=O)[C@@H]2CCC(=O)[C@@]2(C)C[C@H]1OC(C)=O [WORTMANNIN]
- IC50 [27]: 5000 nM (antagonist)

SMILES: Oc1cccc(-c2nc(N3CCOCC3)c3oc4ncccc4c3n2)c1
- Activity (HEK293 [28]): inactive
- Activity (HEK293 [29]): inactive
- Activity (HEK293 [30]): Antagonist

SMILES: Nc1ncnc2[nH]nc(Nc3ccc(F)cc3)c12
- IC50 [31]: 510 nM (antagonist)
- IC50 (Aurora kinase B): 2500 nM (antagonist)
- IC50 [11]: 2500 nM (antagonist)
- IC50 [32]: 3200 nM (antagonist)
- IC50 [33]: 2700 nM (antagonist)
